From patent publication US6340754B1, “Phosphorus containing cyclic nucleotides” (priority 1998, dated 2002)

Key:
[1] = tested on: Intact cells (fraction B) of Serratia marcescens; assay: Activity assay, fraction B: whole-cell suspension, HPLC detection of substrate and products; assay type: cell-based, Serratia marcescens strain DSM 30121; conditions: 10 mM substrate solution, overnight at 30° C.
Experimental: (§1) The substrates used for enzyme activity assays are dissolved in phosphate buffer pH 7.0 to the required concentration.
Serratia marcescens strain DSM 30121 is grown for 48 hrs in Petri dishes containing Luria-Bertani [LB] Agar (1% Tryptone [Merck 07213]; 0.5% Yeast Extract [Fluka 70161]; 86 mM NaCl [Fluka 71382]; 50 mM Tris-HCl, pH 7.5 [Merck 8382]; 1.5% Bacto-Agar [Difco 0140-01]) at 30° C. (Memmert Incubator, Haska AG, Bern, Switzerland). One single colony is subsequently used to inoculate 25 ml of LB Broth contained in a 100-ml shake-flask. This culture is then incubated at 30° C. and shaken at 200 rpm (Infors HT Shaker, Infors AG, Bottmingen, Switzerland) for another 48 hrs.
(§2) After incubation, the whole volume of the culture is centrifuged at 9000 rpm for 20 minutes at ca. 4° C. (DuPont Instruments Sorvall® RC-5B Refrigerated Superspeed Centrifuge, Digitana AG, Horgen, Switzerland; rotor SS-34).
The pellet is resuspended in 1 ml of distilled water and 40 μl of this whole-cell suspension (fraction B) are placed in an Eppendorf tube to which 360 μl of a 10 mM solution of the substrate are added. The incubation conditions are the same as for the supernatant fraction. […]
The activity is qualitatively determined by observing the appearance of the substrate and product(s) of the activity assay as peaks on a HPLC profile. […]

[2] = tested on: cell free culture supernatant (fraction A) of Serratia marcescens, cyclic nucleotide phosphodiesterase activity; assay: Activity assay, fraction A: cell free culture supernatant, HPLC detection of substrate and products; assay type: biochemical, Serratia marcescens strain DSM 30121; conditions: 40 μl of 100 mM substrate in 400 μl, overnight at 30° C.
Experimental: as §1
One single colony is subsequently used to inoculate 25 ml of LB Broth contained in a 100-ml shake-flask. This culture is then incubated at 30° C. and shaken at 200 rpm (Infors HT Shaker, Infors AG, Bottmingen, Switzerland) for another 48 hrs.
as §2
The supernatant (fraction A) is recuperated and 360 μl are placed in an Eppendorf tube. Fourty μl of a 100 mM solution of substrate are then added to the reaction mixture and incubated overnight at 30° C.
After 5 minutes of extraction at room temperature, the tubes are centrifugated at 14 000 rpm for 5 minutes (Bench Centrifuge Biofuge 15) and the supernatant transfered to HPLC tubes for analysis.
Blanks are made with the substrate solution being replaced by an equivalent volume of phosphate buffer pH 7.0.
The activity is qualitatively determined by observing the appearance of the substrate and product(s) of the activity assay as peaks on a HPLC profile. […] A peak showing on the assay's chromatogramme at the same or at a very close retention time as that of a standard, and moreover absent from the blank, is considered to be the same compound as the standard with a minimum risk of error.
The solvent system is composed of 10 mm phosphate buffer, pH 4.0 (solvent A) and Methanol (solvent B) and two different gradients are applied depending on whether natural or modified nucleotides are used for the assay:
The HPLC profiles obtained for the activity assays are compared with profiles of standards in order to identify the peaks.

## COCCO[C@@H]1[C@@H]2OP(=O)(O)OC[C@H]2O[C@H]1n1cnc2c(N)ncnc21 [2′MOE CAMP, 2′-O(2-Methoxyethyl)-adenosine 3′,5′-cyclic-phosphate]
[1]
  degradation of added substrate: about 85%
[2]
  hydrolysis / degradation of substrate: about 50%

## Nc1ccn([C@@H]2O[C@@H]3COP(=O)(O)O[C@H]3[C@H]2O)c(=O)n1 [cCMP]
[2]
  hydrolysis / degradation of substrate: ca. 10%

## O=c1[nH]cnc2c1ncn2[C@@H]1O[C@@H]2COP(=O)(O)O[C@H]2[C@H]1O [cIMP]
[2]
  hydrolysis / degradation of substrate: 85-89%
